Experimental data: US6534512B1, “Dideoxycarbocyclic nucleosides” (Regents of the University of Minnesota, priority 1988, dated 2003)
Values after ≈ are worked out from the molar mass of the structure shown.

Tests used:
[1] = tested on: HIV; assay: Anti-HIV assay (NCI FCRF, XTT microculture tetrazolium), infected cells; format: cell-based; conditions: for anti-HIV activity: in vitro
Text: (§1) Compounds of formula I were screened for anti-HIV activity at the National Cancer Institute, Frederick Cancer Research Facility, Frederick, Md. (FCRF). The following are the current screening mode operational procedures utilized at FCRF. The protocol consists of 3 areas, (I) preparation of infected cells and distribution to the test plates, (II) preparation of drug dilution plates and distribution to the test plates, and (III) XTT assay procedure. See D. A. Scudiero et al., “A New Simplified Tetrazolium Assay for Cell Growth and Drug Sensitivity in Culture,” Cancer Res., 48, 4827 (1988).
Cells to be infected (a normal lymphoblastoid cell line which expresses CD4) are placed in 50 ml conical centrifuge tubes and treated for 1 hr with 1-2 μg/ml of polybrene at 37° C. The cells are then pelleted for 8 min. ) at 1200 rpm. HIV virus, diluted 1:10 in media (RMP1-1640, 10% human serum or 15% fetal calf serum (FCS), with IL-2, for ATH8 cells only, and antibiotics) is added to provided an MOI of 0.001. Medium alone is added to virus-free control cells. Assuming an infectious virus titer of 10^−4, an MOI of 0.001 represents […] infectious virus particles per 10,000 cells. About 500,000 cells/tube are exposed to 400 μl of the virus dilution. The resultant mixture is incubated for 1 hr at 37° C. in Air-CO2. The infected or uninfected cells are diluted to give 1×10^−4 (with human serum or 2×10^−4 with fetal calf serum) cells/100 μl.
Infected or uninfected cells (100 μl) are distributed to appropriate wells of a 96 well, U-bottom, microtiter plate. Each compound dilution is tested in duplicate with infected cells. Uninfected cells are examined for drug sensitivity in a single well for each dilution of compound. Drug-free control cells, infected and uninfected, are run in triplicate. Wells B2 through G2 served as reagent controls and received medium only. The plates are incubated at 37° C. in Air-CO2 until the drug is added.
Dilution plates (flat bottom 96 well, microtiter plates) are treated overnight with phosphate buffered saline (PBS) or media containing at least 1% FCS or 1% human serum (depending on the medium used in the test), beginning the day before assay. This “blocking” procedure is used to limit the adsorption of drug to the microtiter tray during the dilution process. The wells are filled completely with the blocking solution and allowed to stand at room temperature in a humidified chamber in a hood.
The dilution process is begun by first diluting the test compound 1:20. Blocked, dilution plates are prepared by flicking out the blocking solution and blotting dry on sterile gauze. All wells of each plate are then filled with 225 μl of the appropriate medium using a Cetus liquid handling system. Twenty-five microliters (25 μl) of each 1:20 diluted compound is then manually added to row A of a blocked and filled dilution plate. Four compounds, sufficient to supply two test plates, are added per dilution plate. The four compounds are then serially diluted ten-fold from row A through row H using the Cetus liquid handling system. The starting dilution of each compound in row A is, at this point, 1:200. The dilution plates are kept on ice until needed.
Using a multi-channel pipettor with 6 microtips, 100 μl of each drug dilution is transferred to the test plate which already contains 100 μl of medium plus cells. The final dilution, in the test plate, starts at 1:400 (wells B4 through G4). This dilution (to 0.25% DMSO) prevents the DMSO vehicle from interfering with cell growth. Drug-free, infected or uninfected cells (wells B3 through G3) and reagent controls (B2 through G2) receive medium alone. The final two compounds are then transferred from wells H7 through H12 to a second test plate using the same procedure. Test plates are incubated at 37° C. in Air-CO2 or 7-14 days or until virus controls are lysed as determined macroscopically.
1. […]

[2] = tested on: P-388 mouse leukemia cells; assay: P-388 mouse leukemia cell culture cytotoxicity assay; format: cell-based; conditions: cultured P-388 leukemia cells
Text: The ED50 cytotoxicity concentrations determined for analogs 7a, 9a, 10a, 16a, 16b, 17a and 17b in the P-388 mouse leukemia cell culture assay are given in Table II.

[3] = tested on: HIV; design: TI50 against HIV in vitro: unit not given beside the values; conditions: background; cited from earlier work
[4] = tested on: HSV-1; assay: Activity against HSV-1
[5] = tested on: H9/HTLV-IIIB; assay: Earlier anti-HIV assay at the Southern Research Institute; format: cell-based; conditions: MT-2 cells cultured with H9/HTLV-IIIB
Method: An earlier assay carried out at the Southern Research Institute yielded a TI50 of about 200 when MT-2 cells were cultured with H9/HTLV-IIIB.

[6] = tested on: normal cells (uninfected); assay: Anti-HIV assay (NCI FCRF, XTT), drug sensitivity of uninfected cells; format: cell-based
Text: as §1
Cells to be infected (a normal lymphoblastoid cell line which expresses CD4) are placed in 50 ml conical centrifuge tubes and treated for 1 hr with 1-2 μg/ml of polybrene at 37° C. The cells are then pelleted for 8 min. ) at 1200 rpm. HIV virus, diluted 1:10 in media (RMP1-1640, 10% human serum or 15% fetal calf serum (FCS), with IL-2, for ATH8 cells only, and antibiotics) is added to provided an MOI of 0.001. Medium alone is added to virus-free control cells. […]
Using a multi-channel pipettor with 6 microtips, 100 μl of each drug dilution is transferred to the test plate which already contains 100 μl of medium plus cells. […] Test plates are incubated at 37° C. in Air-CO2 or 7-14 days or until virus controls are lysed as determined macroscopically. […]

[7] = tested on: HSV-2; conditions: background; cited from earlier work

Structure (SMILES) | anti-HIV activity [1] | cytotoxicity / activity against P-388 leukemia cells [2] | other results
Nc1ncnc2c1ncn2C1C=CC(CO)C1 (racemic) [Compound 9a, (±)-(1α,4α)-4-(6-Amino-9H-purin-9-yl)-2-cyclopentenyl-carbinol] | active | cytotoxic | –
Nc1nc(Cl)c2ncn([C@H]3C=C[C@@H](CO)C3)c2n1 (racemic) [Compound 13a, (±)-(1α,4α)-4-(2-Amino-6-chloro-9H-purin-9-yl)-2-cyclopentenyl carbinol] | active | – | –
Cc1cn(C2CC(CO)C(N=[N+]=[N-])C2)c(=O)[nH]c1=O (stereo not drawn) [carbocyclic analog of AZT] | – | – | activity against HIV [3]: inactive
OCC1C=CC(n2cnc3c(Cl)ncnc32)C1 (racemic) [Compound 7a, (±)-(1α,4α)-4-(6-chloro-9H-purin-9-yl)-2-cyclopentenyl-carbinol] | active | cytotoxic | –
OCC1C=CC(n2cnc3c(S)ncnc32)C1 (racemic) [Compound 10a, (±)-(1α,4α)-4-(6-Mercapto-9H-purin-9-yl)-2-cyclopentenyl-carbinol] | active | cytotoxic | –
Nc1nc(Cl)c2nnn(C3C=CC(CO)C3)c2n1 (racemic) [Compound 16a, (±)-(1α,4α)-4-(5-Amino-7-chloro-3H-1,2,3-triazolo[4,5d]-pyrimidin-3-yl)-2-cyclopentenyl carbinol] | – | cytotoxic | –
Nc1nc(O)c2ncn(C3C=CC(CO)C3)c2n1 (racemic) [Compound 14a, (±)-(1α,4α)-4-(2-Amino-6-hydroxy-9H-purin-9-yl)-2-cyclopentenyl carbinol] | strongly inhibits | – | effective concentration (EC50) with respect to infected cells ([1]; calculated from FIG. 2 data): about 0.15 μg/ml; TI50, general range ([1]; varied with the infected cell line used): 200-400; activity against HSV-1 [4]: active; TI50 [5]: about 200; inhibitory concentration (IC50) with respect to normal cells ([6]; calculated from FIG. 2 data): about 100 μg/ml
Nc1ncnc2c1ncn2[C@@H]1C[C@H](CO)[C@@H](O)[C@@H]1O [Cyclaridine] | – | – | TI50 against HIV in vitro [3]: 10; activity against HSV-2 [7]: highly active
Nc1nc(O)c2nnn(C3C=CC(CO)C3)c2n1 (racemic) [Compound 17a, (±)-(1α,4α)-4-(5-Amino-7-hydroxy-3H-1,2,3-triazolo[4,5-d]-pyrimidin-3-yl)-2-cyclopentenyl carbinol] | – | cytotoxic | –
Nc1nc(O)c2ncn([C@H]3C=C[C@@H](CO)C3)c2n1 [(−)14a, (1S,4R)-4-(2-Amino-6-hydroxy-9H-Purin-9-yl)-2-cyclopentenyl Carbinol] | highly active | – | IC50 ([6]; Homo sapiens, CCRF-CEM, CEM cells): 189 mg/L (≈ 764 µM)
Nc1nc(N)c2ncn([C@H]3C=C[C@@H](CO)C3)c2n1 (racemic) [Compound 15a, (±)-(1α,4α)-4-(2,6-Diamino-9H-purin-9-yl)-2-cyclopentenyl-carbinol] | active | – | –
CC(=O)OCC1C=CC(n2cnc3c(O)nc(N)nc32)C1 (stereo not drawn) [acetate ester (R′=Ac) of 14a, (1α,4α)-4-(2-Amino-6-hydroxy-9H-purin-9-yl)-2-cyclopentenyl Acetoxycarbinol] | active | – | inhibition of HIV ([1]; at 6 μg/ml): 28%
Nc1nc(N)c2nnn(C3C=CC(CO)C3)c2n1 (racemic) [Compound 18a, (±)-(1α,4α)-4-(5,7-Diamino-3H-1,2,3-triazolo[4,5-d]pyrimidin-3-yl)-2-cyclopentenyl carbinol] | – | cytotoxic | –
